Measurements as given in patent US20220395468A1, “Transdermal Drug Delivery Systems for Administration of a Therapeutically Effective Amount of Lenalidomide and Other Immunomodulatory Agents” (Starton Therapeutics, Inc., priority 2021, published 2022).
Where two headings read alike, the source gives them in different places. One block for each molecule: values may come before it.

Tests used:
[1] = Protocol: Next, the solubility of lenalidomide H1 was determined in silicone polymer-based pressure sensitive adhesives and acrylic polymer-based pressure sensitive adhesives. Pressure sensitive adhesive polymers are the major component of the pressure sensitive adhesives matrix patches and typically constitute 50%-85% of the formulation.
[2] = FIG. 10
Protocol: In vitro permeability of lenalidomide through human cadaver skin was conducted using in vitro franz diffusion cells to identify potential permeation enhancers for lenalidomide. Donor compartment was loaded with Lenalidomide solution or gel.
Lenalidomide H1 solutions were prepared in following different solvents Lactic acid, Dimethyl sulfoxide, NMP, Levulinic acid, Super refined PEG 400, Tween 40, Polysorbate 80.
Lenalidomide gels were prepared using a following solvent system composition (Table 7). Gels were made with 10 different permeation enhancers.

Remark: listed apart in the source
[3] = cited from earlier work
[4] = cited from earlier work; remark: listed apart in the source
[5] = people with high-risk SMM, oral; cited from earlier work

Lenalidomide H1 solubility ([1]; in BIO-PSA 7-4202 (silicone PSA)): Less than 0.5% W/W
Lenalidomide H1 solubility ([1]; in Duro-Tak 87-2052 (acrylic PSA)): Less than 0.5% W/W
Lenalidomide H1 solubility ([1]; in Duro-Tak 87-2074 (acrylic PSA)): Less than 0.5% W/W
Lenalidomide H1 solubility ([1]; in Duro-Tak 87-2194 (acrylic PSA)): Less than 0.5% W/W
Lenalidomide H1 solubility ([1]; in Duro-Tak 87-2516 (acrylic PSA)): approximately 0.5% W/W
Lenalidomide H1 solubility ([1]; in Duro-Tak 87-2852 (acrylic PSA)): Less than 0.5% W/W
Lenalidomide H1 solubility ([1]; in Duro-Tak 87-4098 (acrylic PSA)): Less than 0.5% W/W
Lenalidomide H1 solubility ([1]; in Duro-Tak 87-9301 (acrylic PSA)): Less than 0.5% W/W
rate of lenalidomide permeation ([2]; solution in Lactic acid): highest rate
rate of lenalidomide permeation ([2]; solution in Levulinic acid): negligible permeation
rate of lenalidomide permeation ([2]; solutions in NMP and DMSO): followed by NMP and DMSO
rate of lenalidomide permeation ([2]; solutions in SR PEG 400, TWEEN 40, Polysorbate 80): insignificant to no permeation
Solubility (Aquasolve HPMC-AS MF (0.25 G) + Solvent system Acetone:Methanol (1:1)): 1.2 % W/W
Solubility (Eudragit + Solvent system Acetone:Methanol (1:1)): 0.9 % W/W
Solubility (Kollidon 30 (0.5 G) + Solvent system Acetone:Methanol (1:1)): 2.2 % W/W
Solubility (Kollidon 90 F (0.5 G) + Solvent system Acetone:Methanol (1:1)): 2.0 % W/W
Solubility (Kollidon VA 64 (0.5 G) + Solvent system Acetone:Methanol (1:1)): 2.1 % W/W
Solubility (Kollisolv P124 Geismer (0.27 G) + Solvent system Acetone:Methanol (1:1)): 0.9 % W/W
Solubility (in Acetone): 0.2 % W/W
Solubility (in Acetonitrile): 0.3 % W/W
Solubility (in Dimethyl sulfoxide): 20.7 % W/W
Solubility (in Ethanol 190 Proof): 0.2 % W/W
Solubility (in Ethyl acetate): <0.1 % W/W
Solubility (in Heptane): <0.1 % W/W
Solubility (in Isooctadecanoic acid): <0.1 % W/W
Solubility (in Lactic acid): 9.3 % W/W
Solubility (in Lauryl Lactate): 0.1 % W/W
Solubility (in Levulinic acid): 5.5 % W/W
Solubility (in Methanol): 0.3 % W/W
Solubility (in Methanol:Acetone (1:1)): 0.9 % W/W
Solubility (in Methyl Laurate): <0.1 % W/W
Solubility (in NMP): 29.3 % W/W
Solubility (in Propylene Glycol): 0.4 % W/W
Solubility (in Propylene Glycol monolaurate): <0.1 % W/W
Solubility (in Super refined PEG 400): 1.6 % W/W
Solubility (in Toluene): <0.1 % W/W
SMILES: Nc1cccc2c1CN(C1CCC(=O)NC1=O)C2=O (stereo not drawn) [Lenalidomide H1]

Solubility (in DMSO, room temperature): 10-20%
Solubility (in NMP, room temperature): about 30 % w/w
Solubility (in esters): less than 0.5%
Solubility (in glycols): less than 2%
Solubility (in two organic acids, Lactic acid and levulinic acid): more than 5%
SMILES: Nc1cccc2c1CN(C1CCC(=O)NC1=O)C2=O (stereo not drawn) [Lenalidomide, 3-(4-amino-1-3-dihydro-1-oxo-2H-isoindol-2yl)-2,6-piperidinedione]
solubility of the LLD in solution [3]: 0.4 to 0.5 mg/mL
log P [4]: −0.4
discontinued due to drug-related side effects [5]: 40%
three-year progression-free survival [5]: 91%
